Data on 2 molecules can be found in patent US5792635A, “Method of inhibiting the sodium/proton exchanger NHE3 and method of inhibiting growth by administering squalamine” (priority 1995, dated 1998).

“Also recorded” adds a separate entry of the source. A value given as a limit tells only on which side of the number the result lay.

Data set [1] relates to vitelline capillaries of 3- to 5-day chick embryo. The data set can be described thus: Chick embryo vitelline capillary regression assay. The settings on record: chick embryo capillary bed. In kind it is in vivo. On the procedure:
Using the chick embryo vitelline capillaries assay, compounds were tested for their ability to induce capillary regression. Each compound was applied in 0.1 ml of 15% Ficol 400 and PBS onto the embryo, and vascular regression was assessed after 60 minutes.
The 3-day chick embryo consists of an embryonic disc from which numerous vessels emerge and return, forming a "figure 8"-shaped structure--the embryo in the center with vascular loops extending outward over both poles. […] Following a lag period of around 15 minutes, the constriction of continuity between capillary and secondary vessels, generally on the "venous" side, was observed. Continued pulsatile blood flow progressed, resulting in a "swelling" of the blind tube, followed by a pinching off of the remaining connection and formation of an enclosed vascular sac resembling a "blood island." This process progressed until only the largest vessels remained intact.

Another data set relates to NHE5. Briefly: NHE isoform selectivity inferred from tadpole and chick embryo assays.
The subject of the next data set is Xenopus tadpoles. The data set can be described thus: Tadpole assay.
Another data set has as its system LLC. Briefly: LLC MTT assay (Table II). In kind it is cell-based. The settings on record: Lewis lung carcinoma, read-out: Minimum Effective Concentration, LLC MTT. On the technique in general: Formazan colour is commonly taken as a measure of viable cells.
The subject of the next data set is human melanoma. The data set can be described thus: Effect on growth of human melanoma, time course (FIG. 17). Type of data set: cell-based.
Data set [2] has as its system L1210 lymphoblastic leukemia cells. The data set can be described thus: Mouse model of leukemia (L1210), survival and hematological profile. The settings on record: highest dose (10 mg/kg every 3 days i.p.); FIG. 11.
Text: C57B mice were inoculated with L1210 lymphoblastic leukemia cells at an inoculum that causes leukemia in 100% of animals.
Another data set deals with B16 melanoma. The data set can be described thus: Synergistic inhibition of tumor growth, B16 melanoma in mice. Type of data set: in vivo, mouse. As to conditions: squalamine 15 mg/kg/day; compound 1436 tolerable schedule. The protocol: Based on the idea that tumor growth involves both the clonal expansion of a malignant cell along with the development of a supporting vascular supply, a combination of compound 1436 with squalamine was tested to determine whether it would achieve a synergistic effect on solid tumor growth. This concept was evaluated in the B16 melanoma model.
Animals were implanted with B16 melanoma followed by treatment with compound 1436 or 1256 administered in a combined schedule or separately. […] Thus, a combination of these two compounds achieves a therapeutic benefit in tumors dependent on neovascularization that may prevent metastatic spread.

In the next data set the test system is Murine L1210 leukemia. Briefly: Cancer cells inhibited in vitro. In kind it is cell-based. As to conditions: 10 μg/ml. From the text:
(§1) As set forth in Table 7 below, all malignant tumors evaluated in tissue culture, endothelial cells and vascular smooth muscle cells were sensitive to inhibition. Thus, compound 1436 has application in the control of growth factor dependent proliferation of many types of tissue.

The test system of another data set is Human melanoma WM 1617. The data set can be described thus: Cancer cells inhibited in vitro. The settings on record: 10 μg/ml. In kind it is cell-based.
Text: as §1

In the next data set the test system is Murine B16 melanoma. Briefly: Cancer cells inhibited in vitro. The settings on record: 10 μg/ml. Type of data set: cell-based.
Text: as §1

Data set [3] concerns Human colon carcinoma SW948. The data set can be described thus: Cancer cells inhibited in vitro. Type of data set: cell-based. As to conditions: 10 μg/ml.
Text: as §1

The next data set concerns Lewis lung carcinoma. Briefly: Cancer cells inhibited in vitro. In kind it is cell-based. The settings on record: 10 μg/ml.
Text: as §1

Data set [4] concerns Human colon carcinoma HT29. The data set can be described thus: Cancer cells inhibited in vitro. Type of data set: cell-based. The settings on record: 10 μg/ml.
Text: as §1

The subject of data set [5] is Human ovarian carcinoma SKOV3. Briefly: Cancer cells inhibited in vitro. In kind it is cell-based. As to conditions: 10 μg/ml. The protocol:
as §1
Using the assay described above, the anticancer effects of compound 1437 against several cancer lines was assessed.

A short description of data set [6]: Effect on growth and weight gain of growing mice. In kind it is in vivo, mouse (C57B). The protocol:
Animals were dosed QTD (i.p.) starting on Day 1. […] Animals receiving 5 mg/kg QTD experienced about a 50% reduction in growth, compared to untreated controls, while animals receiving 1 mg/kg QTD were affected by about 10%. […] They appeared very much like hypophysectamized animals might appear.

In data set [7] the test system is Human microvascular endothelial cells. Briefly: Non-transformed cells inhibited in vitro. In kind it is cell-based. As to conditions: 10 μg/ml.
Text: as §1

Data set [8] deals with Human coronary artery smooth muscle cells. The data set can be described thus: Non-transformed cells inhibited in vitro. In kind it is cell-based. As to conditions: 10 μg/ml.
Text: as §1

In data set [9] the test system is bovine pulmonary endothelial cells. Briefly: Non-transformed cells inhibited in vitro. In kind it is cell-based. As to conditions: 10 μg/ml.
Text: as §1

Data set [10] has as its system human umbilical venous endothelial cells. The data set can be described thus: Non-transformed cells inhibited in vitro. Type of data set: cell-based. The settings on record: 10 μg/ml.
Text: as §1

Data set [11] can be described thus: Effect on fasting blood glucose in mice. As to conditions: intravenous; 1436 in D5W, 1437 in water. Type of data set: in vivo, mouse (CD-1). On the procedure:
To study the effect of steroid administrator or the NHE responsible for secretion of insulin, several of the aminosterols from shark liver were administered to fasting mice. Male CD-1 mice were assigned to one of four treatment groups. Whole blood glucose was tested using glucometer (Lifescan Glucometer II and One Touch test strips). Statistical analysis was via one-way analysis of variance (ANOVA) followed by subsequent Bonferonni's t-test.

The nature of data set [12]: Effect on arterial resistance in the rat after i.v. administration. Type of data set: in vivo. On the procedure:
A 200-g rat was catheterized in the right carotid artery, and the compound was introduced over a ten-second period to a total dosage of 5 mg/kg. Within 30 seconds, the mean arterial pressure had fallen from about 100 mm Hg to about 70 mm Hg, with a marked reduction in pulse pressure from about 40 mm to about 10 mm. […] If cardiac output was basically unaffected, reduction in blood pressure would have resulted principally from a reduction in system resistance.
At that time, 40 μg of noradrenaline was introduced.

Data set [13] concerns human coronary artery smooth muscle. The data set can be described thus: Proliferation of human coronary artery smooth muscle in vitro. Type of data set: cell-based. The settings on record: FIG. 15. The source says:
Aminosterols of the invention may also have utility in inhibiting the growth factor mediated proliferation of smooth muscle within the artery. Following coronary angioplasty, reocclusion commonly occurs, secondary to reparative proliferation of the vascular smooth muscle within the wall of the surgically manipulated blood vessel. This process generally takes place over the course of 7-10 days. To evaluate whether an agent could prevent the growth factor mediated proliferation of smooth muscle within the artery, compound 1436 was evaluated in vitro for its effect on the proliferation of human coronary artery smooth muscle. Results for compound 1436 are shown in FIG. 13, and those for squalamine are shown in FIG. 14, with FIG. 15 being a composite logarithmic plot.

A further data set concerns human T-cells. Briefly: Inhibition of PHA-stimulated human lymphocytes. In kind it is cell-based. The settings on record: Homo sapiens, T-cell; 10 μg/ml; read-out: inhibition of blast transformation. The source says: Results are tabulated below.

Take `CC(C)CCC[C@@H](C)[C@H]1CC[C@H]2[C@@H]3CC[C@H]4C[C@@H](NCCCNCCCCNCCCN)CC[C@]4(C)[C@H]3CC[C@]12C` [Compound 353]: the “vitelline capillary regression, potency in words” value in data set [1] was “no effect on the chick embryo capillary bed”. Moreover, in the data set on NHE5, the “NHE5 versus NHE3 selectivity” value is on record as “inhibits NHE5 to a greater extent than NHE3”. Further, in the data set on Xenopus tadpoles (Xenopus tadpole assay), the “functional similarity in tadpole assay” value is recorded as “effects like those produced by compound 1436”. Further, the minimal effective concentration in the data set on LLC is 1.9 µg/mL. Besides, the “effect on melanoma growth, time dependence” value in the data set on human melanoma (FIG. 17A, less effect within first 12 hours) is recorded as “most pronounced over 48 hours”. In the data set with human melanoma (cells exposed to compound 353), the “mode of cell death” value is “apoptotic cell death has been induced”.
In general, inhibition refers to the change of the read-out against control, counted positive when it falls. As to `CC(C)[C@@H](CC[C@@H](C)[C@H]1CC[C@H]2[C@@H]3[C@H](O)C[C@H]4C[C@@H](NCCCNCCCCNCCCN)CC[C@]4(C)[C@H]3CC[C@]12C)OS(=O)(=O)O` [Compound 1436], the “vitelline capillary regression, potency in words” value in data set [1] is “about the same potency as squalamine”. For the same molecule, in [2], the “survival in L1210 leukemia mice” value is “significant prolongation of life”. Further, the “effect of single agent versus combination” value in the data set on B16 melanoma was “Neither administration of squalamine at 15 mg/kg/day nor compound 1436 alone in a tolerable schedule could achieve this effect”. Moreover, the inhibited in vitro entry (in the data set with Murine L1210 leukemia; in the data set with Human melanoma WM 1617; with Murine B16 melanoma; in data set [3]; in the data set on Lewis lung carcinoma; in [4]) was “INHIBITED” in each case. For the same molecule, the inhibited in vitro entry in data set [5], in data set [7], in data set [8], in data set [9] and in data set [10] was “INHIBITED” each time. For the same molecule, in the data set on Xenopus tadpoles (10 μg/ml), the “death / lethality time” value is given as “about 2 hours”. Also, the “observed response in tadpole” value with Xenopus tadpoles (10 μg/ml, stage 59-60 Xenopus) is “common vascular occlusive effect; also recorded: Gradual reduction in overall activity. Heart beat remained strong, suggesting nervous system depression; also recorded: Melanocytes over head and tail began to swell, first exhibiting visibly distinct nuclei, followed by rupture into fragments; also recorded: dramatic disruption of melanocytes over its head, trunk, and tail, along with depression of its nervous system; also recorded: No effects are observed on epithelial cell integrity, vascular flow, erythrocyte volume, tissue integrity, muscle fiber striation, or GI tract activity”. The “growth inhibition of mice” value in [6] (10 mg/kg QTD i.p., after 6 doses, about 1 month) is reported as “almost completely inhibited”. Further, the apparent health entry in data set [6] (C57B mice, 1-10 mg/kg QTD i.p.) was “all were active, normally proportioned, not-cachectic, and in excellent apparent clinical health”. Further, the “suppression of linear growth and weight gain” value in data set [6] (normal growing mice, i.p.) is “suppresses both linear growth and weight gain in growing mice in a dose-dependent fashion”. In addition, the hyperglycemic response result in [11] is listed as “caused hyperglycemia in mice”. The reversibility by noradrenaline result in data set [12] (40 μg noradrenaline at 30 minutes) was “readily reversible by standard pharmacological practice”. In addition, in [12] (5 mg/kg i.v.), the “duration of blood pressure effect followed without significant change” value worked out at 30 min. In addition, in [13], the “suppression of growth of human coronary artery smooth muscle” value was “suppress in vitro the growth of human coronary artery smooth muscle”. In addition, the inhibition at 10 µg/mL with human T-cells is > 75%.
